Legend:
[1] = Antibody pharmacokinetic assay in rats (total antibody in plasma by HER2 ELISA); settings: SD rats, intravenous 30 mg/kg, compared with control Ab
[2] = Determination of drug antibody coupling ratio (DAR) by UV/Vis method; format: physicochemical; settings: two-step coupling products, UV-Vis; moles of drug divided by moles of antibody
Excerpt: In formula (1), the sum of the absorbances of the drug and the antibody at 280 nm constitutes the total absorbance (A280): A280=(εdrug^280Cdrug+εmAb^280CmAb)l (1)
wherein εdrug^280 is the extinction coefficient of the drug at 280 nm; Cdrug is the drug concentration (mg/mL); […] the extinction coefficient of the antibody at 280 nm; CmAb is the concentration of the antibody.
Equation (2) is the parallel equation for the total absorbance of the drug at the maximum absorption λ(D): Aλ(D)=(εdrug^λ(D)Cdrug+εmAb^λ(D)CmAb)l (2)
wherein εdrug^λ(D) is the extinction coefficient of the drug at λ(D)nm; Cdrug is the drug concentration (mg/mL); εmAb^λ(D) is the extinction coefficient of the antibody at λ(D)nm; CmAb is the concentration of the antibody (mg/mL).
The concentration of antibody and drug can be calculated separately by two equations (1) and (2). CmAb=(A280εdrug^λ(D)−Aλ(D)εdrug^280)/[(εmAb^280εdrug^λ(D)−εmAb^λ(D)εdrug^280)l] (3) Cdrug=(A280εmAb^λ(D)−Aλ(D)εmAb^280)/[(εdrug^280εmAb^λ(D)−εdrug^λ(D)εmAb^280)l] (4)
The average drug antibody coupling ratio (DAR) calculated by dividing
[formula] is expressed as the number of moles of drug divided by the number of moles of antibody: […]

[3] = test system: colorectal cancer model (HCT-116); experiment: Efficacy test in colorectal cancer model in which HER2 was not expressed; format: in vivo, nude mice; settings: HCT-116 model
Procedure: Experimental method: Evaluation of the efficacy of the sample was performed using a colorectal cancer model in which HER2 was not expressed. The cell line at logarithmic growth phase was inoculated subcutaneously into the right side of the immunodeficient mice, and the cell inoculation amount was 5×10^6 cells/mouse. After the transplanted tumor was formed, allow it grow in the mice for 2 passage before use. The tumor tissue with strong growth period was cut into tumor pieces with a diameter of about 2 mm, and inoculated subcutaneously into the right torso of nude mice under sterile conditions. The formed tumor tissue is measured by a vernier caliper, and the long and short diameters are represented by a and b, respectively, and the tumor volume (TV) is calculated as: TV=½×a×b^2. Animals were randomized after tumor growth to 100-150 mm^3. Both models were divided into vehicle group, control group (recombinant anti-HER2 humanized monoclonal antibody Ab, 30 mg/kg) and test group I (administered with APEGA-8, 9, 10, respectively (prepared in Example 6-8), the dose was 30 mg/kg in terms of Ab, and the test group II (PEG-Irinotecan (prepared in Example 5), the dose was 30 mg/kg). Both the test article and the control drug were administered once a week vial the tail vein for a total of three administrations. The diameter of the transplanted tumor was measured twice a week during the entire experiment, and the body weight of the mice was weighed. After the end of the administration, continue to observe the animals for a week, and then they were sacrificed.

Question: Which “elimination rate in rat plasma (total antibody)” value [1] does the source give for CCc1c2c(nc3ccc(OC(=O)N4CCC(N5CCCCC5)CC4)cc13)-c1cc3c(c(=O)n1C2)COC(=O)[C@]3(C)CC [APEGA-8] here?
Answer: increased to a certain extent compared with the control Ab, but the decline trend was not significant

Question: And the “DAR (average drug antibody coupling ratio)” value [2]?
Answer: 22.2

Question: What about the “antitumor activities in relation to drug loading” value ([3]; 30 mg/kg in terms of Ab, QW×3) of the same compound?
Answer: increased with the drug loading

Question: And the “efficacy compared with group II (PEG-Irinotecan 30 mg/kg)” value ([3]; irinotecan dose 2.6, 4.2, 11.2 mg/kg respectively)?
Answer: still better than group II

Question: And the “Tumor inhibition rate (%)” value ([3]; third week of administration, 30 mg/kg QW×3 via tail vein)?
Answer: 40.1%
